From ChEMBL document CHEMBL1121838, “Synthesis and anticholinergic properties of the enantiomers of 4-(isopropylamino)-2-(2-pyridyl)-2-phenylbutyramide, the mono-N-dealkylated metabolite of disopyramide” (J Med Chem, 1981)

Experiments:
Cavia porcellus [1] = organism: Cavia porcellus; assay: Inhibitory concentration of guinea pig ileum longitudinal muscle produced in response to electrically simulated release of acetylcholine; format: functional, Muscle tissue
Cavia porcellus [2] = organism: Cavia porcellus; assay: Mean dissociation constant was measured for acetylcholine-induced contractions; format: functional
Cavia porcellus [3] = organism: Cavia porcellus; assay: Inhibitory concentration of guinea pig ileum longitudinal muscle strips to antagonize electrically stimulated contractions; format: functional; details: Muscle tissue

| SMILES | IC50 (Cavia porcellus [1]) [µM] | IC50 (Cavia porcellus [1]; Cavia porcellus, Muscle tissue) [µM] | Kd (Cavia porcellus [2]) [µM] | IC50 (Cavia porcellus [3]) [µM] |
| --- | --- | --- | --- | --- |
| CC(C)NCC[C@@](C(N)=O)(c1ccccc1)c1ccccn1 (stereo in doubt; 2 (2R)) | 14 | – | – | – |
| CC(C)NCC[C@@](C(N)=O)(c1ccccc1)c1ccccn1 (stereo in doubt; 2 (2S)) | 5 | – | – | – |
| CC(C)N(CC[C@](C(N)=O)(c1ccccc1)c1ccccn1)C(C)C [(S)-DISOPYRAMIDE] | – | 4.5 | – | – |
| CC(C)N(CCC(C(N)=O)(c1ccccc1)c1ccccn1)C(C)C (configuration not stated) [DISOPYRAMIDE] | – | – | 2.2 | 1.5 |
| CC(C)NCCC(C(N)=O)(c1ccccc1)c1ccccn1 (configuration not stated) [N-MONODEISOPROPYL DISOPYRAMIDE] | – | – | 3.8 | 3.2 |
